Test: Prodrug to drug conversion half-life in vitro, PBS pH 7.4, 37° C.
Format: physicochemical
Conditions: buffer
Experimental: General Methods for Measuring Conversion Half-Life
The assay was performed to investigate the conversion half-life of prodrug to drug of the prodrugs of the invention.
Peptide stock solutions were prepared by dissolving freeze-dried powder in PBS buffer to a target of 200 μM. PBS-buffer was Dulbecco's Phosphate Buffered Saline without CaCl2 and MgCl2, gibco 14190-094 adjusted to pH=7.4. The pH of the peptide stock solutions was adjusted to 7.4 with 0.02 M HCl or 0.02M NaOH. Samples were filled in Agilent HPLC vials with fixed insert. Vials were capped to prevent evaporation. The HPLC vials were incubated at 37° C. and samples were withdrawn at different time points over a period of 2 weeks, flash frozen at −80° C., and stored at −20° C. until analysis.
Sample analysis was carried out using UPLC coupled to UV detection at 215 nm and MS (UPLC-UV-MS). One μl of sample was injected on to a Waters Acquity UPLC with a flow-through-needle injection system and on to a Waters Acquity CSH C18 column (1*150 mm), with a particle size of 1.7 μm and held at 55° C. A flow-rate of 100 μl/min was delivered with a Binary solvent manager pump having 0.1% formic acid in water as solvent A and 0.1% formic acid in acetonitrile as solvent B. Gradient elution was carried out using 15-32% B from 0 to 4 min followed by 32 to 48% B from 4 to 54 min. […]

Structure (SMILES) | half-life [h]
CC[C@H](C)[C@H](NC(=O)[C@H](Cc1ccccc1)NC(=O)[C@H](CCC(=O)O)NC(=O)[C@H](CCCCNC(=O)COCCOCCNC(=O)COCCOCCNC(=O)CC[C@H](NC(=O)CCCCCCCCCCCCCCCCC(=O)O)C(=O)O)NC(=O)[C@H](C)NC(=O)[C@H](C)NC(=O)[C@H](CCC(N)=O)NC(=O)CNC(=O)[C@H](CCC(=O)O)NC(=O)[C@H](CC(C)C)NC(=O)[C@H](Cc1ccc(O)cc1)NC(=O)[C@H](CO)NC(=O)[C@H](CO)NC(=O)[C@@H](NC(=O)[C@H](CC(=O)O)NC(=O)[C@H](CO)NC(=O)[C@@H](NC(=O)[C@H](Cc1ccccc1)NC(=O)[C@@H](NC(=O)CNC(=O)[C@H](CCC(=O)O)NC(=O)C(C)(C)NC(=O)[C@H](Cc1c[nH]cn1)NC(=O)CN(CCNC(=O)CC[C@H](NC(=O)CCCCCCCCCOc1ccc(C(=O)O)cc1)C(=O)O)C(=O)CN)[C@@H](C)O)[C@@H](C)O)C(C)C)C(=O)N[C@@H](C)C(=O)N[C@@H](Cc1c[nH]c2ccccc12)C(=O)N[C@@H](CC(C)C)C(=O)N[C@H](C(=O)N[C@@H](CCCNC(=N)N)C(=O)NCC(=O)N[C@@H](CCCNC(=N)N)C(=O)NCC(=O)O)C(C)C [Chem. 18, Gly-N^α-2-[[(4S)-4-carboxy-4-[10-(4-carboxyphenoxy)decanoylamino]butanoyl]amino]ethyl-Gly-semaglutide] | 115
CC[C@H](C)[C@H](NC(=O)[C@H](Cc1ccccc1)NC(=O)[C@H](CCC(=O)O)NC(=O)[C@H](CCCCNC(=O)COCCOCCNC(=O)COCCOCCNC(=O)CC[C@H](NC(=O)CCCCCCCCCCCCCCCCC(=O)O)C(=O)O)NC(=O)[C@H](C)NC(=O)[C@H](C)NC(=O)[C@H](CCC(N)=O)NC(=O)CNC(=O)[C@H](CCC(=O)O)NC(=O)[C@H](CC(C)C)NC(=O)[C@H](Cc1ccc(O)cc1)NC(=O)[C@H](CO)NC(=O)[C@H](CO)NC(=O)[C@@H](NC(=O)[C@H](CC(=O)O)NC(=O)[C@H](CO)NC(=O)[C@@H](NC(=O)[C@H](Cc1ccccc1)NC(=O)[C@@H](NC(=O)CNC(=O)[C@H](CCC(=O)O)NC(=O)C(C)(C)NC(=O)[C@H](Cc1c[nH]cn1)NC(=O)CN(CCNC(=O)CC[C@H](NC(=O)CCCCCCCCCCOc1ccc(C(=O)O)cc1)C(=O)O)C(=O)CN)[C@@H](C)O)[C@@H](C)O)C(C)C)C(=O)N[C@@H](C)C(=O)N[C@@H](Cc1c[nH]c2ccccc12)C(=O)N[C@@H](CC(C)C)C(=O)N[C@H](C(=O)N[C@@H](CCCNC(=N)N)C(=O)NCC(=O)N[C@@H](CCCNC(=N)N)C(=O)NCC(=O)O)C(C)C [Chem. 26, Gly-N^α-2-[[(4S)-4-carboxy-4-[11-(4-carboxyphenoxy)undecanoylamino]butanoyl]amino]ethyl-Gly-semaglutide] | 118
